CS(=O)(=O)c1cccc(C[C@H](NC(=O)c2c(Cl)cc3c(c2Cl)CCN(C(=O)c2ccc4ccoc4c2)C3)C(=O)O)c1
Conditions | solubility (mole fraction)
in PEG-400, 288.15 K | 0.0757
in PEG-400, 293.15 K | 0.0767
in PEG-400, 298.15 K | 0.0776
in PEG-400, 303.15 K | 0.0786
in PEG-400, 308.15 K | 0.0796

solubility (mole fraction)
Conditions | 288.15 K | 293.15 K | 298.15 K | 303.15 K | 308.15 K
in glycerin | 0.000104 | 0.000118 | 0.000133 | 0.000151 | 0.000167
in propylene glycol | 0.00102 | 0.00119 | 0.00138 | 0.00161 | 0.00183
in transcutol | 0.015 | 0.0159 | 0.0168 | 0.0178 | 0.0187
in water | 1.49e-06 | 1.85e-06 | 2.31e-06 | 2.79e-06 | 3.37e-06
